According to ChEMBL document CHEMBL1201862, “PubChem BioAssay data set” (2004):
Calls of active or inactive are those of the source.

Assays:
[1] = molecular target: T1, Oxysterols receptor LXR-beta (Homo sapiens, UniProt P55055); assay type: functional, cell-based;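 note: Cell-based luminescence dose-response assay of agonist activity at LXR, run as a confirmatory counterscreen to a daf-12 agonist screen; HEK293 cells with Gal4-LXR fusion and GAL4-driven luciferase reporter; agonist potency from rising luciferase signal of a Gal4-LXR reporter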
T1 sequence (P55055 whole entry): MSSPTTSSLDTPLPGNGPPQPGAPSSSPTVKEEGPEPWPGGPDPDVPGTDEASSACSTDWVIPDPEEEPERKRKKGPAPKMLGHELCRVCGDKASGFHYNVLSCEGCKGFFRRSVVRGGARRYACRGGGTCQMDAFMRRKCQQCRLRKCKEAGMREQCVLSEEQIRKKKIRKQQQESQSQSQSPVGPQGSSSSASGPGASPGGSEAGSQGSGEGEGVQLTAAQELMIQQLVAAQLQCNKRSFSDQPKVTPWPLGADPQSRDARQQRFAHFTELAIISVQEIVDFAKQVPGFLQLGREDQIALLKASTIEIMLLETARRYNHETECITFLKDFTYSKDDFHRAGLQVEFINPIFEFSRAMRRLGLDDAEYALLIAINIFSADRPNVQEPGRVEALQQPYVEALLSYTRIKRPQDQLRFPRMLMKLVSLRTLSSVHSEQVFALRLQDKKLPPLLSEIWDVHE

[2] = Luminescence-based cell-based high throughput dose response assay to identify activators of the DAF-12 from the parasite S. stercoralis (ssDAF-12).; assay type: functional
Melanocortin receptor 4 = Melanocortin receptor 4 (Homo sapiens, UniProt P32245); assay type: functional, cell-based;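 note: Cell-based assay with luminescence read-out, confirmatory dose-response testing for agonist activity of biased ligands at MC4R; human U2OS cells with tagged receptor and beta-arrestin; potency of agonists that increase receptor coupling to beta-arrestin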
[3] = reduced cellular PGC1a acetyl-lysine signal – cell-based, cherry-picked samples, dose response (AID 720514); assay type: functional;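 note: potency may reflect raised or lowered acetylation signal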
fMet-Leu-Phe receptor = molecular target: T2, fMet-Leu-Phe receptor (Homo sapiens, UniProt P21462); assay: formyl peptide receptor binders – dose response (AID 519); assay type: functional
T2 sequence (P21462 whole entry): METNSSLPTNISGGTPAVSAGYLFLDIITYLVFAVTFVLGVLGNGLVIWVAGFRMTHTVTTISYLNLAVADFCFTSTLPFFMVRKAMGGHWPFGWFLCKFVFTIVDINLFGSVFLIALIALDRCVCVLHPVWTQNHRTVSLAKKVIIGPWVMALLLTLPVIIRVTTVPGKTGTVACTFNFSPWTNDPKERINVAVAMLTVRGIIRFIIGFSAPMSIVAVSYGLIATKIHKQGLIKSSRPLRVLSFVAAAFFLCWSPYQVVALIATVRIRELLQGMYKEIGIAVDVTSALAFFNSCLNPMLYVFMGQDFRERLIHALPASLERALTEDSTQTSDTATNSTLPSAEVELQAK

[4] = molecular target: T3, Microphthalmia-associated transcription factor (Homo sapiens, UniProt O75030); assay: reducers of TRPM1 reporter luminescence, concentration series – cell-based, SK-MEL-5, cherry-picked, set 3, MITF inhibitor project, dose response (AID 493073); assay type: functional;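 note: SK-MEL-5 melanoma cells with luciferase driven by the MITF target TRPM1 promoter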
T3 sequence (O75030 whole entry): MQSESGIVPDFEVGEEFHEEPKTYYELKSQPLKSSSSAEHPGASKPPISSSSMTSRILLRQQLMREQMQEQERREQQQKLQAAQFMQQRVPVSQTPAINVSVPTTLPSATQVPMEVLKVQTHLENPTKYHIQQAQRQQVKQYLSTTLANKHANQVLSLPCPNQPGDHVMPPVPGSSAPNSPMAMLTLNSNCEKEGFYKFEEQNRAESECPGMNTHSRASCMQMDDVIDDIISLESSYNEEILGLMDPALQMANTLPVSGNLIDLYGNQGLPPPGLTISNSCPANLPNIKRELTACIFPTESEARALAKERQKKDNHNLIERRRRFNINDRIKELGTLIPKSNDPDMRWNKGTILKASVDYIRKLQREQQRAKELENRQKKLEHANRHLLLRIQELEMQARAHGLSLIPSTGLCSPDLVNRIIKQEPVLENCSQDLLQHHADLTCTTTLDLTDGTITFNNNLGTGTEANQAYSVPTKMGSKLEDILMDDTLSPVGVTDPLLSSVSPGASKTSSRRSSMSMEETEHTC

[5] = blockade of melanocortin 4 receptor signaling – cell-based, plate reader, cherry pick, counter-screen for LGR2 antagonist project, dose response (AID 743444); assay type: functional;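 note: transfected HEK 293 cells stimulated with alpha-MSH peptide; potency of inhibitors of the alpha-MSH evoked signal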
[6] = toxicity toward HepG2 liver cells – cell-based, plate reader, cherry-pick, antagonist series, cytotoxicity control, dose response (AID 743416); assay type: functional
[7] = blockers of bursicon-stimulated LGR2 cAMP reporter – cell-based, HEK293, CRE-luciferase reporter, cherry pick, set 2, dose response (AID 743343); assay type: functional;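 note: transfected cells were stimulated with diluted bursicon conditioned medium after compound addition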
[8] = viability loss in HEK293 cells – cell-based, plate reader, cherry-picked samples, cytotoxicity control, dose response (AID 743446); assay type: functional
[9] = A549 cell cytotoxicity, dose response, cytotoxicity control, plate reader, cherry-pick, antagonist series (AID 743412); assay type: functional, cell-based
[10] = molecular target: Luciferin 4-monooxygenase (Photinus pyralis, UniProt P08659); assay: inhibition of purified Photinus pyralis luciferase – biochemical, luminescence, dose response (AID 1891)
Protein skinhead-1 = molecular target: T4, Protein skinhead-1 (Caenorhabditis elegans, UniProt P34707); assay type: functional
T4 sequence (P34707 whole entry): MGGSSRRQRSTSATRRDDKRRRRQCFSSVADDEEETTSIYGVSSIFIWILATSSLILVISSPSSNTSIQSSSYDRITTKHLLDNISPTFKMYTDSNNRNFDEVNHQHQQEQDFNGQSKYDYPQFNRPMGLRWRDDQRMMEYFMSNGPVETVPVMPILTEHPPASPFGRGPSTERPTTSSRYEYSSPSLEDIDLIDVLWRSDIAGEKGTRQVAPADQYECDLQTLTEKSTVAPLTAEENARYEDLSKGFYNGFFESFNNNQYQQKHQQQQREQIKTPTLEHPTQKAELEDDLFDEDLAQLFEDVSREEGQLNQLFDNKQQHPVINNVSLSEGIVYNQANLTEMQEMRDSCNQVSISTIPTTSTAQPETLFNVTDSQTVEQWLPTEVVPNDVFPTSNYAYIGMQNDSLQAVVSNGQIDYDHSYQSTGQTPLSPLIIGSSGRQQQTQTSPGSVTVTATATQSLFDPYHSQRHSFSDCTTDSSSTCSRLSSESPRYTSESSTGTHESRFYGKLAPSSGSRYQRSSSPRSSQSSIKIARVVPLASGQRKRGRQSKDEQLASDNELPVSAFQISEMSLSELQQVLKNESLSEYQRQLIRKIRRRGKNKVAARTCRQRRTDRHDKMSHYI

[11] = Luminescence Cell-Based Dose Confirmation HTS to Identify Inhibitors of Platelet Dense Granule Release. [Related pubchem assays: 1663 (Primary HTS), 1678 (Summary of Project)]; assay type: functional
HEK293 = assay: EBV LMP1 TES2 canonical NF-kB signalling blockers – cell-based, HEK293, luciferase, cherry-pick, dose response (AID 588343); assay type: functional; details: Homo sapiens
Cytochrome P450 1A2 = molecular target: T5, Cytochrome P450 1A2 (Homo sapiens, UniProt P05177);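 note: PubChem cytochrome P450 panel assay, CYP1A2 panel member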
T5 sequence (P05177 whole entry): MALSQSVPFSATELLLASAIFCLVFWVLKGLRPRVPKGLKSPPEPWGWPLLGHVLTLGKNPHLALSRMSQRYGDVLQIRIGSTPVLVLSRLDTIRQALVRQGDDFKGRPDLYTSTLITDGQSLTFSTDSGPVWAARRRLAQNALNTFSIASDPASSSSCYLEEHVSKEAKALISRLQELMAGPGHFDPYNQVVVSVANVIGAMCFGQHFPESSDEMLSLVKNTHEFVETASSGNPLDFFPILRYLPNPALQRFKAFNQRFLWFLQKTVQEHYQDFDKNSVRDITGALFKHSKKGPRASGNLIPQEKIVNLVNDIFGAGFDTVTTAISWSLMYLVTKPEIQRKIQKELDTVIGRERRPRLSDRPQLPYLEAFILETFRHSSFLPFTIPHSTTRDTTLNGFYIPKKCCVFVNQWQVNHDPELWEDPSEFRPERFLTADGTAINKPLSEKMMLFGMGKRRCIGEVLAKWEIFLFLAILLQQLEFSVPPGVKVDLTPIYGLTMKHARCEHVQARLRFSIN

[12] = molecular target: T6, Calpain-2 catalytic subunit (Sus scrofa, UniProt P43367); assay: m-calpain protease blockers, concentration series – biochemical, fluorogenic peptide substrate, dose response (AID 1420); assay type: functional
T6 sequence (P43367 whole entry): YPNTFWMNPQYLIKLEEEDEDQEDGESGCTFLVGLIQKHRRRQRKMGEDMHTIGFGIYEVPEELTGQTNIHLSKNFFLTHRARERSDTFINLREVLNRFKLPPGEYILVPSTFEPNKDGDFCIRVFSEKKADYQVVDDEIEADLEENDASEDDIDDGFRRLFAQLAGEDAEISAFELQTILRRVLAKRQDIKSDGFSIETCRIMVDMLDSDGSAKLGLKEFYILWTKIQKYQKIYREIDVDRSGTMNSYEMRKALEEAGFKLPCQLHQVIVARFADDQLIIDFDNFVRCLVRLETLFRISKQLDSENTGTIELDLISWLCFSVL

Cytochrome P450 2C9 = Cytochrome P450 2C9 (Homo sapiens, UniProt P11712)
[13] = general mammalian cell viability loss – activator set, cherry-pick, cytotoxicity control for miR-122 modulator project, dose response (AID 720690); assay type: functional, cell-based;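 note: HEK293T human cells scored for general mammalian cytotoxicity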

Sequence of Luciferin 4-monooxygenase (P08659 whole entry): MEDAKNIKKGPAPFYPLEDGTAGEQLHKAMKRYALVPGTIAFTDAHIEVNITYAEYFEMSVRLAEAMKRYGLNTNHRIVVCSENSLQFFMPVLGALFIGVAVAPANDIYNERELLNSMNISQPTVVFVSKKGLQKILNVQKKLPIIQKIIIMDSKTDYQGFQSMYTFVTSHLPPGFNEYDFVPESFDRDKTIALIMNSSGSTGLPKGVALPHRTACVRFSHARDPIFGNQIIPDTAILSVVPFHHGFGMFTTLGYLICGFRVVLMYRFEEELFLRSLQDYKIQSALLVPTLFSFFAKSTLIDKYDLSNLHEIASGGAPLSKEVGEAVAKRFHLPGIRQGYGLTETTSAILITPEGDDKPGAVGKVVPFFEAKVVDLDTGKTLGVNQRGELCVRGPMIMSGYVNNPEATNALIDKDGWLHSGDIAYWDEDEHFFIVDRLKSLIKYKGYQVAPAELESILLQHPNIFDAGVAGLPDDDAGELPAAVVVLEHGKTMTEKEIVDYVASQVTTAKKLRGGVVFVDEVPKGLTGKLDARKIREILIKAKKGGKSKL
Sequence of Melanocortin receptor 4 (P32245 whole entry): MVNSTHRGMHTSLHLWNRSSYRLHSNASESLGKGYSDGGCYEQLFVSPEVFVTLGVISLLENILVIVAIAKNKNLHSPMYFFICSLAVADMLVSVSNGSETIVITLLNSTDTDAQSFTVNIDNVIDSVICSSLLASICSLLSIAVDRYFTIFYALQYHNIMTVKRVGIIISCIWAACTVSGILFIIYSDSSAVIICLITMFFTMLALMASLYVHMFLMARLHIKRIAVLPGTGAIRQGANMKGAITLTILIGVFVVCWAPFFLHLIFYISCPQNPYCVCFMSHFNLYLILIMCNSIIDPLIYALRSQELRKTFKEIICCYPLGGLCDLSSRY
Sequence of Cytochrome P450 2C9 (P11712 whole entry): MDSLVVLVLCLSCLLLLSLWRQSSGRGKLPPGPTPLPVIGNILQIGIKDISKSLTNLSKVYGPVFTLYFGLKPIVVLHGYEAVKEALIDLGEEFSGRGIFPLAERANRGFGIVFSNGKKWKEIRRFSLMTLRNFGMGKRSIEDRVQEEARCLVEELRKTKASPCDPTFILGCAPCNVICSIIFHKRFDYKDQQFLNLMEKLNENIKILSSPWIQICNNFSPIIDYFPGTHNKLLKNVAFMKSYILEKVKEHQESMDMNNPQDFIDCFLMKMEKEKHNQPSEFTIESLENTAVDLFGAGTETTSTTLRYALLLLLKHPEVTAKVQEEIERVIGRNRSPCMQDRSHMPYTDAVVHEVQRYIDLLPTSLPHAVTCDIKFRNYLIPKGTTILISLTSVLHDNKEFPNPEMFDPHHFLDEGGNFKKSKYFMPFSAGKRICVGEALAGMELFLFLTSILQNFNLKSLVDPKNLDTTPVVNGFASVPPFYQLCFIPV

Oc1ccccc1-c1cc(-c2ccccc2)no1
EC50 [1]: > 67.5 µM (inactive)
IC50 [2]: > 67.5 µM (inactive)
EC50 (cells): > 67.5 µM (inactive)

O=C(Nc1cccc(NC(=S)NC(=O)c2cccs2)c1)c1ccccc1
EC50 (Melanocortin receptor 4): > 89.2 µM (inactive)

CN(C)CCCN(C(=O)CCOc1ccccc1)c1nc2ccc(F)cc2s1
AC50 [3]: 12.8 µM (active)

COc1cc(C2C(C(=O)c3ccc4c(c3)CC(C)O4)=C(O)C(=O)N2CCCn2ccnc2)ccc1O (stereo not drawn)
Ki (fMet-Leu-Phe receptor): 57.5 µM (inactive)

Cc1cc(C)n(-c2ccc(C(=O)Nc3ccc(C)c(S(=O)(=O)N4CCOCC4)c3)cc2)n1
AC50 [4]: 4.54 µM (active)
AC50 [5]: 13.4 µM (active)
AC50 [6]: 33.8 µM (active)
AC50 [7]: 18.1 µM (active)
AC50 [8]: 25.4 µM (active)
AC50 [9]: > 52 µM (inactive)

COc1ccc(-c2nc(-c3cccs3)no2)cc1
EC50 [10]: 1.59 µM (active)
AC50 [5]: 3.02 µM (active)
IC50 (Protein skinhead-1): > 100 µM (inactive)
EC50 [11]: 18.7 µM (active)
AC50 [7]: 2.18 µM (active)
AC50 [8]: > 52 µM (inactive)
AC50 (HEK293): 1.7 µM (active)

CCOc1ccc(NC(=S)NC(=O)/C=C/c2ccc(C)cc2)c([N+](=O)[O-])c1
AC50 (Cytochrome P450 1A2): 15.8 µM (inconclusive)
IC50 [12]: > 50 µM (not active)
AC50 (Cytochrome P450 2C9): 3.55 µM (inconclusive)
EC50 (Melanocortin receptor 4): > 89.2 µM (inactive)

CCOC(=O)c1c(NC(=O)c2cc(C3CC3)on2)sc2c1CCCC2
Ki (fMet-Leu-Phe receptor): > 66.7 µM (inactive)

CC(=O)n1nc(-c2ccccc2)cc1-c1ccccc1
EC50 [1]: > 67.5 µM (inactive)
EC50 (cells): > 67.5 µM (inactive)

COc1ccccc1CNc1nc(Nc2ccccc2Cl)c2sccc2n1
AC50 [13]: 2.71 µM (active)

Cc1ccccc1/N=C/C1=C(O)c2ccccc2C1=O
EC50 [10]: 1.02 µM (active)
AC50 [5]: 1.67 µM (active)
AC50 [6]: > 52 µM (inactive)
EC50 [11]: 3.79 µM (active)
AC50 [7]: 1.03 µM (active)
AC50 [9]: > 52 µM (inactive)
